# Where a name gives a salt, the structure may show the parent alone. Read-outs that look alike come from different tables or passages of the source.
# Key:
# [1] = target: T1, butyrylcholinesterase (BChE, equine serum) (Equus caballus, UniProt P81908); experiment: Ellman's assay, butyrylcholinesterase inhibition; format: biochemical; conditions: for Type of Inhibition / Ki′ (uncompetitive inhibition) / Ki: BChE, equine serum; for Ki′ (uncompetitive inhibition) / Ki: Ellman's assay; for Ki: read-out: Ki (competitive inhibition); for Grade of inhibition in% BChE: mean ± SE; for selectivity F (percent inhibition for AChE divided by percent inhibition for BChE): towards BChE
# T1 construct: Butyrylcholinesterase (from equine serum) was purchased from Fluka; purchased Fluka; host or cells: equine serum
# Excerpt: (§1) In this study, carboxamides with different triterpenoic backbones (ursolic, oleanolic, maslinic, betulinic, and platanic acids), and various amine residues (Scheme 1), were investigated.
# (§2) A TECAN SpectraFluorPlus working in the kinetic mode and measuring the absorbance at λ = 415 nm was used for the enzymatic studies. Acetylcholinesterase (from Electrophorus electricus), 5,5′-dithiobis-(2-nitrobenzoic acid) (DTNB) and acetylthiocholine iodide were purchased from Sigma. Butyrylcholinesterase (from equine serum) was purchased from Fluka. Preparation of the solutions, assay procedure, as well as molecular modeling conditions can be found in the Supplementary Materials.
# (§3) 3.1 Preparation of the solutions
# (§4) Preparation of 50 mM Tris-HCl buffer solutions: Tris(hydroxymethyl)-aminomethane (606 mg) was dissolved in bidestilled water (100 mL) and adjusted with HCl to a pH of 8.0 ± 0.1. Buffers were freshly prepared and stored in the refrigerator. AChE solution 2.005 U/mL: the enzyme (271 U/mg, 0.037 mg) was dissolved in freshly prepared buffer pH 8.0 (5 mL) containing NaN3 (0.98 mg). BChE solution 2.040 U/mL: the enzyme (7.54 U/mg, 1.353 mg) was dissolved in freshly prepared buffer pH 8.0 (5 mL) containing NaN3 (0.98 mg). DTNB solution 3 mM: DTNB (23.8 mg) was dissolved in freshly prepared buffer pH 8.0 (20 mL) containing NaCl (116.8 mg) and MgCl2 (38.0 mg). ATChI solution 15 mM:
# (§5) ATChI (43.4 mg) was dissolved in bidestilled water (10 mL). All solutions were stored in Eppendorf caps in the refrigerator or in the freezer, if necessary. The pure compounds were […]
# (§6) dissolved in bidistilled water. The final concentrations for the enzymatic assay were obtained by diluting the stock solution with bidistilled water.
# (§7) A mixture of the DTNB solution (125 µL), enzyme solution (25 µL) and compounds solutions (25 µL, 3 different concentrations and once blank water) was prepared and incubated at 30 °C for 20 min. The substrate (25 µL, 4 different concentrations) was added to start the enzymatic reaction. The absorbance data (l = 415 nm) was recorded under a controlled temperature of 30 °C for 30 min at 1 min intervals. The substrate concentrations in the test were as follows: […]
# (§8) determined as the quotient of the slopes (compound divided by blank) of the linear ranges.
# (§9) The used substrate concentration was 0.625 mM. The absorbance data was recorded under a controlled temperature of 30 °C for 10 min.
# [2] = target: acetylcholinesterase (AChE, electric eel) (Electrophorus electricus, UniProt O42275); conditions: for Grade of inhibition in% AChE / Ki' (uncompetitive inhibition) / Ki: mean ± SE; for Type of Inhibition / Ki' (uncompetitive inhibition) / Ki: AChE, electric eel; for Ki: read-out: Ki (competitive inhibition)
# Excerpt: as §1, §2, §3, §4, §5, §6, §7, §8, §9
# [3] = read-out: Grade of inhibition in% BChE
# Sequence of acetylcholinesterase (AChE, electric eel) (O42275 24-633): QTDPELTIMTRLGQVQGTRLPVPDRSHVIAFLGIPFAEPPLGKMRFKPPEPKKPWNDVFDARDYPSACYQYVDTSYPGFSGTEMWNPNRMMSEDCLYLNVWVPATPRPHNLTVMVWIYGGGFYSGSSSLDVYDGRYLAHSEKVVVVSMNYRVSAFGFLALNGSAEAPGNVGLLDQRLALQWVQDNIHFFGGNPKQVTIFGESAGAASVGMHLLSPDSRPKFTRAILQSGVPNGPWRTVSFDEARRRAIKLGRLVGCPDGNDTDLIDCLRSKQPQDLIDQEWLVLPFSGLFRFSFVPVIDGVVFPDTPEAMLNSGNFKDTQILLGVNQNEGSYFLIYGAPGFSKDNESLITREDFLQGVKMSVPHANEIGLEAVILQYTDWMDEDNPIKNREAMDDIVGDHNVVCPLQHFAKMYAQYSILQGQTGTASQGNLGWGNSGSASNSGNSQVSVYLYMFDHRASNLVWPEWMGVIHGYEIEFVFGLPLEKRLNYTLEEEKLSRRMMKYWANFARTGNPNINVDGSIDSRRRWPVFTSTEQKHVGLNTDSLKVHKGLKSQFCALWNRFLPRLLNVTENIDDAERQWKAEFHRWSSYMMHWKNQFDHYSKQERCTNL
# T1 sequence (P81908 whole entry): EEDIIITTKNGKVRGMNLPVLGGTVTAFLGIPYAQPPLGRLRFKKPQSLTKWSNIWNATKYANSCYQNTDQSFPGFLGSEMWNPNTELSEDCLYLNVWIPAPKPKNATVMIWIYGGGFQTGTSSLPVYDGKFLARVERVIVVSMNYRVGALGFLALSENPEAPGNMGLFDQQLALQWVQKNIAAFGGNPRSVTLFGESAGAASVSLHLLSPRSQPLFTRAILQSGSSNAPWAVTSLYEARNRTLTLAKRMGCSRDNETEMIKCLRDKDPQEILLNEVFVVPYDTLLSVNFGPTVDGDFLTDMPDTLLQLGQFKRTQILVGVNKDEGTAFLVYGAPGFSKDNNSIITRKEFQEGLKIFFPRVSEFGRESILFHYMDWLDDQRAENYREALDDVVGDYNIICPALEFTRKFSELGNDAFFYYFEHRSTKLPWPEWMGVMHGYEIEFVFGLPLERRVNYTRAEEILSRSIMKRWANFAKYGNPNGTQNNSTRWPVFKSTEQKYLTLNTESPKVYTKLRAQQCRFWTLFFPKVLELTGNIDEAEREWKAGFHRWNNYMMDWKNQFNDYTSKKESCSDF
Compound,Type of Inhibition [1],Ki′ (uncompetitive inhibition) [1],Ki [1],Grade of inhibition in% BChE ([1]; c = 30 µM),Grade of inhibition in% AChE ([2]; c = 30 µM),Grade of inhibition in% BChE ([1]; c = 10 µM),Grade of inhibition in% AChE ([2]; c = 10 µM),selectivity F (percent inhibition for AChE divided by percent inhibition for BChE) [1],Type of Inhibition [2],Ki' (uncompetitive inhibition) [2],Ki [2],"inhibition at 10 µM [1, 3]","inhibition at 30 µM [1, 3]"
C[C@@H]1CC[C@]2(C(=O)NCCN(C)C)CC[C@]3(C)C(=CCC4[C@@]5(C)CC[C@H](O)C(C)(C)C5CC[C@]43C)C2[C@H]1C (some centres unmarked) [Compound 26],mixed-type,3100 ± 300 nM,1110 ± 90 nM,77.74 ± 0.59%,33.53 ± 0.44%,–,–,–,–,–,–,–,–
"CC(=O)OC1CCC2(C)C(CCC3(C)C2CC=C2C4CC(C)(C)CCC4(C(=O)NCCN4CCCCC4)CCC23C)C1(C)C (stereo not drawn) [Compound 42, (3β)-N-(2-Piperidin-1-ylethyl)-3-acetyloxy-olean-12-en-28-amide]",–,–,–,53.09 ± 0.14%,45.57 ± 0.25%,–,–,–,–,–,–,–,–
"CC(=O)O[C@H]1CC[C@]2(C)[C@H]3CC[C@@H]4[C@H]5[C@H](C(C)=O)CC[C@]5(C(=O)NCCN5CCCCC5)CC[C@@]4(C)[C@]3(C)CC[C@H]2C1(C)C [Compound 45, (3β)-N-(2-Piperidin-1-ylethyl)-3-acetyloxy-20-oxo-30-norlupan-28-amide]",mixed-type,4880 ± 210 nM,710 ± 40 nM,–,–,83.44 ± 1.00%,no inhibition,–,–,–,–,–,–
"CN(C)CCNC(=O)C12CCC(C)(C)CC1C1=CCC3C4(C)CCC(O)C(C)(C)C4CCC3(C)C1(C)CC2 (stereo not drawn) [Compound 27, (3β)-N-[2-(Dimethylamino)-ethyl]-3-hydroxy-olean-12-en-28-amide]",mixed-type,9070 ± 20 nM,1310 ± 10 nM,–,–,67.10 ± 0.07%,5.54 ± 0.07%,0.08,–,–,–,–,–
C=C(C)C1CC[C@]2(C(=O)NCCN)CC[C@]3(C)C(CCC4[C@@]5(C)CC[C@H](O)C(C)(C)C5CC[C@]43C)C12 (some centres unmarked) [Compound 19],–,–,–,–,–,36.70 ± 5.34%,62.95 ± 0.61%,–,–,–,–,–,–
C=C(C)C1CC[C@]2(C(=O)NCCN3CCCC3)CC[C@]3(C)C(CCC4[C@@]5(C)CC[C@H](O)C(C)(C)C5CC[C@]43C)C12 (some centres unmarked) [Compound 39],mixed-type,> 9000 nM,3240 ± 580 nM,60.48 ± 0.05%,58.81 ± 0.80%,–,–,–,–,–,–,–,–
CC(=O)O[C@H]1CC[C@@]2(C)C(CC[C@]3(C)C2CC=C2C4[C@@H](C)[C@H](C)CC[C@]4(C(=O)NCCN(C)C)CC[C@]23C)C1(C)C (some centres unmarked) [Compound 21],mixed-type,143360 ± 20 nM,6480 ± 100 nM,–,–,36.50 ± 0.30%,10.78 ± 0.12%,–,–,–,–,–,–
"CC1(C)CCC2(C(=O)NCCN3CCCC3)CCC3(C)C(=CCC4C5(C)CCC(O)C(C)(C)C5CCC43C)C2C1 (stereo not drawn) [Compound 37, (3β)-N-(2-Pyrrolidin-1-ylethyl)-3-hydroxy-olean-12-en-28-amide]",mixed-type,> 50000 nM,550 ± 20 nM,–,–,74.50 ± 0.93%,10.04 ± 1.70%,–,–,–,–,–,–
C=C(C)C1CC[C@]2(C(=O)NCCN(C)C)CC[C@]3(C)C(CCC4[C@@]5(C)CC[C@H](O)C(C)(C)C5CC[C@]43C)C12 (some centres unmarked) [Compound 29],mixed-type,16110 ± 180 nM,3520 ± 70 nM,56.68 ± 0.01%,22.12 ± 4.01%,–,–,–,–,–,–,–,–
C=C(C)C1CC[C@]2(C(=O)NCCN(C)C)CC[C@]3(C)C(CCC4[C@@]5(C)CC[C@H](OC(C)=O)C(C)(C)C5CC[C@]43C)C12 (some centres unmarked) [Compound 24],mixed-type,–,–,–,–,67.75 ± 0.69%,13.10 ± 1.32%,–,–,–,–,–,–
"CC1(C)CC[C@]2(C(=O)NCCN)CC[C@]3(C)C(=CC[C@@H]4[C@@]5(C)CC[C@H](O)C(C)(C)[C@@H]5CC[C@]43C)[C@@H]2C1 [Compound 17, (3β)-N-(2-Aminoethyl)-3-hydroxy-olean-12-en-28-amide]",mixed-type,7680 ± 610 nM,1930 ± 130 nM,–,–,49.10 ± 0.47%,88.61 ± 0.22%,–,mixed-type,18240 ± 60 nM,8530 ± 340 nM,–,–
"C=C(C)C1CC[C@]2(C(=O)NCCN3CCCCC3)CC[C@]3(C)C(CCC4[C@@]5(C)CC[C@H](O)C(C)(C)C5CC[C@]43C)C12 (stereo partly drawn) [Compound 49, (3β)-N-(2-piperidin-1-ylethyl)-3-hydroxy-lup-20(29)-en-28-amide]",mixed-type,> 8000 nM,2520 ± 290 nM,–,–,66.02 ± 0.70%,82.72 ± 0.09%,–,mixed-type,1420 ± 80 nM,1000 ± 90 nM,–,–
C[C@@H]1CC[C@]2(C(=O)NCCN3CCCC3)CC[C@]3(C)C(=CCC4[C@@]5(C)CC[C@H](O)C(C)(C)C5CC[C@]43C)C2[C@H]1C (some centres unmarked) [Compound 36],mixed-type,2230 ± 120 nM,470 ± 80 nM,85.66 ± 0.10%,31.45 ± 0.60%,–,–,–,–,–,–,–,–
"CC(=O)[C@@H]1CC[C@]2(C(=O)NCCN3CCCCC3)CC[C@]3(C)[C@H](CC[C@@H]4[C@@]5(C)CC[C@H](O)C(C)(C)[C@@H]5CC[C@]43C)[C@@H]12 [Compound 50, (3β)-N-(2-Piperidin-1-ylethyl)-3-hydroxy-20-oxo-30-norlupan-28-amide]",mixed-type,3090 ± 30 nM,970 ± 40 nM,–,–,88.37 ± 0.85%,52.14 ± 1.55%,–,–,–,–,–,–
"CC(=O)OC1CC2(C)C(CCC3(C)C2CC=C2C4CC(C)(C)CCC4(C(=O)NCCN4CCCC4)CCC23C)C(C)(C)C1OC(C)=O (stereo not drawn) [Compound 33, (2α,3β)-N-(2-Pyrrolidin-1-ylethyl)-2,3-diacetyloxy-olean-12-en-28-amide]",–,–,–,33.01 ± 2.91%,23.47 ± 4.59%,–,–,–,–,–,–,–,–
"CC(=O)O[C@H]1CC[C@]2(C)[C@H]3CC=C4[C@@H]5CC(C)(C)CC[C@]5(C(=O)NCCN5CCCC5)CC[C@@]4(C)[C@]3(C)CC[C@H]2C1(C)C [Compound 32, (3β)-N-(2-Pyrrolidin-1-ylethyl)-3-acetyloxy-olean-12-en-28-amide]",mixed-type,29880 ± 1130 nM,2020 ± 560 nM,–,–,65.73 ± 0.14%,7.29 ± 0.50%,0.11,–,–,–,–,–
"COc1ccc2c3c1O[C@H]1C[C@@H](O)C=C[C@@]31CCN(C)C2 [GH, Galantamine hydrobromide, reference compound]",competitive,–,–,–,–,–,–,–,–,–,–,57.79 ± 0.52%,80.25 ± 0.33%
